One data set deals with KM12. In words: Antiproliferative activity against human KM12 cells incubated for 72 hrs by CCK-8 assay. Format: functional, cell-based. The conditions noted are these: KM12, 72 h. A general note: Formazan colour is commonly taken as a measure of viable cells.
The nature of data set [1]: Cytotoxicity against HUVEC cells incubated for 72 hrs by CCK-8 assay. Particulars: human.
For another data set, the species on record is Homo sapiens. In words: Selectivity ratio, ratio IC50 for inhibition of PI3Kalpha (unknown origin) to IC50 for inhibition of PI3Kdelta (unknown origin).
The subject of data set [2] is T47D. As to the kind of experiment: Downregulation of pSTAT3 expression in IL-6-stimulated human T47D cells at 10 to 1000 nM measured by western blot analysis. Type of data set: functional, cell-based. The conditions noted are these: dose 10-1000 nM, DDE = dose-dependent effect. A general note: A western blot detects proteins with antibodies after separation by electrophoresis.

Data set [3] concerns T47D. In words: Downregulation of pAKT expression in human T47D cells at 10 to 1000 nM measured by western blot analysis. Particulars: dose 10-1000 nM, DDE = dose-dependent effect. Type of data set: functional, cell-based.
The subject of data set [4] is T47D. In words: Downregulation of PD-L1 expression in human T47D cells at 10 to 1000 nM measured by western blot analysis. Type of data set: functional, cell-based. The conditions noted are these: dose 10-1000 nM, DDE = dose-dependent effect.
Data set [5] is described as follows: Cmax in male Sprague-Dawley rat at 2 mg/kg, iv measured upto 24 hrs by LC-MS/MS analysis. Format: ADME, organism-based. More on the design: time < 24 hrs, dose 2 mg/kg, route iv. Particulars: in vivo.
Data set [6] deals with T1, Protein deacetylase HDAC6 (Homo sapiens, UniProt Q9UBN7).
T1 sequence (Q9UBN7 whole entry): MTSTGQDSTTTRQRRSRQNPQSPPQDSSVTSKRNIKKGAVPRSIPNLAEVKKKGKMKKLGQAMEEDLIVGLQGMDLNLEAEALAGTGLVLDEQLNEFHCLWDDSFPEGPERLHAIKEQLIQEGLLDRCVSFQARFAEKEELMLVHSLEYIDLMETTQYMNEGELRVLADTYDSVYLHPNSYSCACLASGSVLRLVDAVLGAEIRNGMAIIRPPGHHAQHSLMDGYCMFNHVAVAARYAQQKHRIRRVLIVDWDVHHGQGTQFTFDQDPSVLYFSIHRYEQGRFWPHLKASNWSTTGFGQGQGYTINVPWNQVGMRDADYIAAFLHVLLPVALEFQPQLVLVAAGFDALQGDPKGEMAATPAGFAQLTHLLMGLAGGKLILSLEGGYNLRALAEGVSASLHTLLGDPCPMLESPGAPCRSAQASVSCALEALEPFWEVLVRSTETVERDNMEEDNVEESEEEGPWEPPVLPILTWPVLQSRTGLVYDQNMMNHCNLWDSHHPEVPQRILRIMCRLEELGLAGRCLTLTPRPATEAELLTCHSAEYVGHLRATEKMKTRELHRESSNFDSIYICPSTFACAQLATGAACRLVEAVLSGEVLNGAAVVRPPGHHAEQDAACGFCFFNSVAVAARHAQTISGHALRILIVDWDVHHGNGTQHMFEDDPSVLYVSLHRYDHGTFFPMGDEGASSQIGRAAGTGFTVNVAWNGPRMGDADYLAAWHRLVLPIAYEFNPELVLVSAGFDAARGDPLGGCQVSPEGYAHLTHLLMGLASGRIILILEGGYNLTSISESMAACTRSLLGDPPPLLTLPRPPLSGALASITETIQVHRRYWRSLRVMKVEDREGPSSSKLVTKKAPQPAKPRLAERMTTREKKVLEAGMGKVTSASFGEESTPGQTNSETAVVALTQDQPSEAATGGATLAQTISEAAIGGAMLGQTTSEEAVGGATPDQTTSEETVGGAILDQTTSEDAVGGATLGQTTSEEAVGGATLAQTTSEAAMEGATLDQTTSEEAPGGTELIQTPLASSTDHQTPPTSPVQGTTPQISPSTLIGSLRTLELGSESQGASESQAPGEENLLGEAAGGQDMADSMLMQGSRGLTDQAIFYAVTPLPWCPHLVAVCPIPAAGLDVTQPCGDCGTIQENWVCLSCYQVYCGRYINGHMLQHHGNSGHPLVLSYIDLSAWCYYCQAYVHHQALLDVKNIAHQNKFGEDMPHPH
Description: Inhibition of HDAC6 (unknown origin) measured by fluorescence based assay

Another data set addresses T2, Histone deacetylase 8 (Homo sapiens, UniProt Q9BY41).
T2 sequence (Q9BY41 whole entry): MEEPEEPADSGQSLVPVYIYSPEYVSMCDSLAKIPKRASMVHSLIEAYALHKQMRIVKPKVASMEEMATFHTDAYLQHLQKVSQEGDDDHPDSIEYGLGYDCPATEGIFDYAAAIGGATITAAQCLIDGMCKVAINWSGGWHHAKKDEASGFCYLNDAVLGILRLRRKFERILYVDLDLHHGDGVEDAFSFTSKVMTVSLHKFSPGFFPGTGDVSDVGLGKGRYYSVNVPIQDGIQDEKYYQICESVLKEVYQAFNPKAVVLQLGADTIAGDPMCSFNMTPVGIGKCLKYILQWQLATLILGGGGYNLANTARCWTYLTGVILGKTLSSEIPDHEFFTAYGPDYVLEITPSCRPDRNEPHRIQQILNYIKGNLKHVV

Data on one compound can be found in ChEMBL document CHEMBL5214954, “Identification of PI3K/HDAC Dual-targeted inhibitors with subtype selectivity as potential therapeutic agents against solid Tumors: Building HDAC6 potency in a Quinazolinone-based PI3Kδ-selective template” (Bioorg Med Chem, 2022).

Molecules are shown by their SMILES. Where only a bound is given, the exact number is not on record here.

In general, IC50 refers to the concentration at which inhibition is half-maximal. Read a low IC50 as greater potency. One may read the Cmax as the highest concentration seen after dosing.

Description for Histone deacetylase 8: Inhibition of HDAC8 (unknown origin) measured by fluorescence based assay

Turning to `N#Cc1c(N)nc(N)nc1N1CC2(CC2)C[C@H]1c1nc2cccc(Cl)c2c(=O)n1Cc1ccc(C(=O)NO)s1`, the IC50 in the data set with KM12 was 1190 nM; in data set [6] it was 13 nM; against Histone deacetylase 8 it was above 5000 nM. Moreover, inhibition in data set [1] was half-maximal at 37000 nM (IC50 at 72 h). Besides, the Ratio IC50 in the data set listed under Homo sapiens was 73. For the same compound, the Activity entry with T47D [2], with T47D [3] and with T47D [4] was “Dde” throughout. This compound gave a Cmax in data set [5] of 2120 ng/mL.
